Results as given in ChEMBL document CHEMBL6178002, “Identification of a RANKL/TNF-α Dual-Inhibitor as a Potential Disease-Modifying Agent for the Treatment of Knee Osteoarthritis” (J Med Chem, 2025).
Activity calls are given as the source filed them. No cut-off for these calls is given here.

Key:
[1] = system: Bone marrow macrophage; assay: Inhibition of RANKL/M-CSF-induced osteoclastogenesis in bone marrow macrophage cells (unknown origin) assessed as decrease in NFATC1 mRNA level incubated for 48 hrs by RT-qPCR analysis; assay type: functional, cell-based; settings: dose <= 5.0 µM
[2] = system: Bone marrow macrophage; assay: Inhibition of RANKL/M-CSF-induced osteoclastogenesis in bone marrow macrophage cells (unknown origin) assessed as decrease in MMP-9 level at 1 uM by Western blot analysis; assay type: functional, cell-based; settings: time <= 5.0 day
[3] = Oral bioavailability in male Sprague-Dawley rat at 1 mg/kg, iv measured for 0.25 to 24 hrs; assay type: ADME, organism-based; settings: in vivo, time 0.25-24 hrs
[4] = system: Primary chondrocyte; assay: Anti-inflammatory activity in IL-1beta-treated C57/BL6 mouse primary chondrocytes assessed as decrease in MMP-13 mRNA level at 10 uM incubated for 24 hrs by RT-qPCR analysis; assay type: functional, cell-based
[5] = system: RAW264.7; assay: Anti-inflammatory activity in LPS-stimulated mouse RAW264.7 cells assessed as decrease in IL-1beta level at 10 uM preincubated for 24 hrs followed by LPS addition measured after 2 hrs by RT-qPCR analysis; assay type: functional, cell-based; settings: time 26.0 hrs
[6] = Cytotoxicity against bone marrow macrophage cells (unknown origin) assessed as cell viability at 10 uM incubated for 24 hrs by CCK8 assay relative to control; assay type: toxicity, cell-based; settings: read-out: Activity
[7] = system: Bone marrow macrophage; assay: Inhibition of RANKL/M-CSF-induced osteoclastogenesis in bone marrow macrophage cells (unknown origin) assessed as decrease in cathepsin K level incubated for 48 hrs by Western blot analysis; assay type: functional, cell-based; settings: dose <= 2.5 µM
[8] = Cmax in male Sprague-Dawley rat at 10 mg/kg, po measured for 0.25 to 24 hrs; assay type: ADME, organism-based; settings: in vivo, time 0.25-24 hrs
[9] = system: RAW264.7; assay: Anti-inflammatory activity in LPS-stimulated mouse RAW264.7 cells assessed as decrease in IL-6 level at 10 uM preincubated for 24 hrs followed by LPS addition measured after 2 hrs by RT-qPCR analysis; assay type: functional, cell-based; settings: time 26.0 hrs
[10] = system: Primary chondrocyte; assay: Anti-inflammatory activity in IL-1beta-treated C57/BL6 mouse primary chondrocytes assessed as decrease in MMP-3 mRNA level at 10 uM incubated for 24 hrs by RT-qPCR analysis; assay type: functional, cell-based
[11] = species: Rattus norvegicus; assay: Anti-inflammatory activity in male Sprague-Dawley rat model of ACLT-induced osteoarthritis assessed as reduction in OA-induced pain at 50 to 100 ug, IART treated weekly once for 8 weeks by hot-plate test; assay type: functional, organism-based; settings: dose 50-100 µg
[12] = Cmax in male Sprague-Dawley rat at 1 mg/kg, iv measured for 0.25 to 24 hrs; assay type: ADME, organism-based; settings: in vivo, time 0.25-24 hrs
[13] = system: Bone marrow cell; assay: Inhibition of RANKL/M-CSF-induced osteoclastogenesis in male C57/BL6 mouse bone marrow cells assessed as decrease in F-actin loop formation incubated for 5 to 7 days by rhodamine phalloidin/DAPI staining based analysis; assay type: functional; settings: dose <= 1.0 µM, time 5-7 day
[14] = system: Bone marrow cell; assay: (§1) Inhibition of RANKL/M-CSF-induced osteoclastogenesis in male C57/BL6 mouse bone marrow cells incubated for 5 to 7 days by TRAP staining based analysis; assay type: functional; settings: dose <= 5.0 µM, time 5-7 day
[15] = as §1; assay type: functional; settings: bone marrow cell
[16] = Half life in male Sprague-Dawley rat at 1 mg/kg, iv measured for 0.25 to 24 hrs; assay type: ADME, organism-based; settings: in vivo, time 0.25-24 hrs
[17] = system: Bone marrow macrophage; assay: Inhibition of RANKL/M-CSF-induced osteoclastogenesis in bone marrow macrophage cells (unknown origin) assessed as decrease in TRAP level at 1 uM by Western blot analysis; assay type: functional, cell-based; settings: time <= 5.0 day
[18] = Clearance in male Sprague-Dawley rat at 1 mg/kg, iv measured for 0.25 to 24 hrs; assay type: ADME, organism-based; settings: in vivo, time 0.25-24 hrs
[19] = system: Bone marrow macrophage; assay: Inhibition of RANKL/M-CSF-induced osteoclastogenesis in bone marrow macrophage cells (unknown origin) assessed as decrease in TRAP mRNA level at 1 uM by RT-qPCR analysis; assay type: functional, cell-based; settings: time <= 5.0 day
[20] = system: Bone marrow macrophage; assay: Inhibition of RANKL/M-CSF-induced osteoclastogenesis in bone marrow macrophage cells (unknown origin) assessed as decrease in c-Fos level at 1 uM by Western blot analysis; assay type: functional, cell-based; settings: time <= 5.0 day
[21] = system: Bone marrow macrophage; assay: Inhibition of RANKL/M-CSF-induced osteoclastogenesis in bone marrow macrophage cells (unknown origin) assessed as decrease in TRAP mRNA level incubated for 48 hrs by RT-qPCR analysis; assay type: functional, cell-based; settings: dose <= 5.0 µM
[22] = Tmax in male Sprague-Dawley rat at 10 mg/kg, po measured for 0.25 to 24 hrs; assay type: ADME, organism-based; settings: in vivo, time 0.25-24 hrs
[23] = Volume of distribution at steady state in male Sprague-Dawley rat at 1 mg/kg, iv measured for 0.25 to 24 hrs; assay type: ADME, organism-based; settings: in vivo, time 0.25-24 hrs, read-out: Vdss
[24] = system: Bone marrow macrophage; assay: Inhibition of RANKL/M-CSF-induced osteoclastogenesis in bone marrow macrophage cells (unknown origin) assessed as decrease in c-Fos mRNA level incubated for 48 hrs by RT-qPCR analysis; assay type: functional, cell-based; settings: dose <= 5.0 µM
[25] = AUC (0 to t) in male Sprague-Dawley rat at 1 mg/kg, iv measured for 0.25 to 24 hrs; assay type: ADME, organism-based; settings: in vivo, time 0.25-24 hrs

Cc1cccc(C)c1NC(=O)[C@@H]1Cc2c([nH]c3ccccc23)C2(CN(c3ccccc3)C2)N1
inhibition [1]: Dose-dependent-effect
inhibition [2]: Time-dependent-effect
bioavailability [3]: 71.4%
Activity [4]: Active
Activity [5]: Active
viability at 24 h, 10 µM [6]: 110%
inhibition [7]: Dose-dependent-effect
Cmax [8]: 780 ng/mL
Activity [9]: Active
Activity [10]: Active
Activity [11]: Active
Cmax [12]: 338 ng/mL
inhibition [13]: Dose-dependent-effect
inhibition [14]: Dose-dependent-effect
IC50 [15]: 0.109 µM
half-life [16]: 76.2 min
inhibition [17]: Time-dependent-effect
clearance [18]: 71.7 mL/min/kg
inhibition [19]: Time-dependent-effect
inhibition [20]: Time-dependent-effect
inhibition [21]: Dose-dependent-effect
Tmax [22]: 30 min
Vd [23]: 4.91 L/kg
inhibition [24]: Dose-dependent-effect
AUC(0-t) [25]: 227 ng·h/mL
